# Columns and labels:
# [1] = target: C-C chemokine receptor type 5 (Homo sapiens, UniProt P51681); assay: Antagonist activity at CCR5 (unknown origin) expressed in HEK293 cells co-expressing Galpha16 assessed as inhibition of RANTES-induced calcium flux preincubated for 10 mins followed by RANTES addition by fluo-4AM-based fluorescence assay; assay type: functional, cell-based
# [2] = Cytotoxicity against human TZM-bl cells after 48 hrs by MTT assay; assay type: cell-based
# [3] = tested on: Human immunodeficiency virus 1; assay: microbe, parasite or virus in culture; settings: Human immunodeficiency virus 1, SF162, TZM-bl, 48 h
# Description: Antiviral activity against CCR5-dependent HIV1 SF162 infected in human TZM-bl cells assessed as reduction in virus infection measured after 48 hrs post infection by luciferase reporter gene assay
# [4] = in vitro; settings: human, TZM-bl cells
# Description: Therapeutic index, ratio of CC50 for human TZM-bl cells to EC50 for CCR5-dependent HIV1 SF162 infected in human TZM-bl cells
# Chain of C-C chemokine receptor type 5 (P51681 whole entry): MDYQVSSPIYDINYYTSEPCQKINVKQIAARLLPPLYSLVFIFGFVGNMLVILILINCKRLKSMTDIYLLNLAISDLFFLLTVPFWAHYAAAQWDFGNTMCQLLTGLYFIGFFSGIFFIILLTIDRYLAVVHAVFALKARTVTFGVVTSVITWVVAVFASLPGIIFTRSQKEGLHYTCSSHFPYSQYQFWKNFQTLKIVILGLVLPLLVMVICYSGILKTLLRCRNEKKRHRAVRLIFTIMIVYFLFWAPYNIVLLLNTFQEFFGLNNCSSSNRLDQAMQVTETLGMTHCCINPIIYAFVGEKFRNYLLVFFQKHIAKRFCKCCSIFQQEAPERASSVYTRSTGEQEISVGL
SMILES,IC50 [1],other results
Cc1nnc(C(C)C)n1[C@@H]1C[C@H]2CC[C@@H](C1)N2CC[C@H](NC(=O)C1CC(F)(F)C1)c1cccs1,2.6 nM,
Cc1nnc(C(C)C)n1[C@@H]1C[C@H]2CC[C@@H](C1)N2CC[C@H](NC(=O)C(C)(C)C(F)(F)F)c1cccs1,5.4 nM,
Cc1nnc(C(C)C)n1[C@@H]1C[C@H]2CC[C@@H](C1)N2CC[C@H](NC(=O)[C@@H]1CCC(=O)N1)c1cccs1,20.6 nM,
Cc1csc([C@H](CCN2[C@@H]3CC[C@H]2C[C@H](n2c(C)nnc2C(C)C)C3)NC(=O)C2CCC(F)(F)CC2)c1,6.8 nM,
CCc1nnc(C)n1[C@@H]1C[C@H]2CC[C@@H](C1)N2CC[C@H](NC(=O)C1CCC(F)(F)CC1)c1ccsc1,2.8 nM,
Cc1nnc(C(C)C)n1[C@@H]1C[C@H]2CC[C@@H](C1)N2CC[C@H](NC(=O)C1CCC(F)(F)CC1)c1ccc(Cl)s1,12 nM,
Cc1nnc(C(C)C)n1[C@@H]1C[C@H]2CC[C@@H](C1)N2CC[C@H](NC(=O)C1CCC(F)(F)C1)c1cccs1 (some centres not stated),2.3 nM,
Cc1nnc(C2CC2)n1[C@@H]1C[C@H]2CC[C@@H](C1)N2CC[C@H](NC(=O)C1CCC(F)(F)CC1)c1ccsc1,2.6 nM,
CC(C)c1nnc(C(F)(F)F)n1[C@@H]1C[C@H]2CC[C@@H](C1)N2CC[C@H](NC(=O)C1CCC(F)(F)CC1)c1cccs1,4.7 nM,
Cc1ccc([C@H](CCN2[C@@H]3CC[C@H]2C[C@H](n2c(C)nnc2C(C)C)C3)NC(=O)Cc2ccc(F)cc2)s1,33 nM,
Cc1nnc(C(C)C)n1[C@@H]1C[C@H]2CC[C@@H](C1)N2CC[C@H](NC(=O)C1CC(=O)N(C)C1)c1cccs1 (some centres not stated),5.2 nM,
Cc1ccc([C@H](CCN2[C@@H]3CC[C@H]2C[C@H](n2c(C(C)C)nnc2C(F)(F)F)C3)NC(=O)C2CCC(F)(F)CC2)s1,4 nM,
O=C(N[C@@H](CCN1[C@@H]2CC[C@H]1C[C@H](n1c(C3CC3)nnc1C(F)(F)F)C2)c1ccsc1)C1CCC(F)(F)CC1,2.9 nM,
Cc1nnc(C(C)C)n1[C@@H]1C[C@H]2CC[C@@H](C1)N2CC[C@H](NC(=O)C1CCC(F)(F)CC1)c1csc2ccccc12,9.7 nM,CC50 at 48 h [2]: 96100 nM; IC50 [3]: 810 nM; selectivity ratio [4]: 119

# From ChEMBL document CHEMBL4229569, “Structure-Based Design of 1-Heteroaryl-1,3-propanediamine Derivatives as a Novel Series of CC-Chemokine Receptor 5 Antagonists” (J Med Chem, 2018)
